Source: PubChem BioAssay (NCI)
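Briefly, cells in 96-well plates were exposed to five compound concentrations for 48 h, and endpoints were estimated by linear interpolation. The concentration for 50% growth inhibition is given as GI50. At the TGI there is no net growth.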

Experiments:
Test in all cases: DTP human tumour cell line panel, 48 h
[1] = test system: HS 578T breast
[2] = test system: SK-MEL-5 melanoma
[3] = test system: M14 melanoma
[4] = test system: MALME-3M melanoma
[5] = test system: DU-145 prostate
[6] = test system: NCI-H23 lung
[7] = test system: RPMI-8226 leukemia
[8] = test system: SK-OV-3 ovarian
[9] = test system: HOP-92 NSCLC
[10] = test system: LOX IMVI melanoma
[11] = test system: HCC-2998 colon
[12] = test system: ACHN renal
[13] = test system: SNB-19 CNS
[14] = test system: EKVX NSCLC
[15] = test system: U251 CNS
[16] = test system: MOLT-4 leukemia
[17] = test system: MCF7 breast
[18] = test system: TK-10 renal
[19] = test system: SN12C renal
[20] = test system: KM12 colon
[21] = test system: MDA-MB-435
[22] = test system: HCT-116 colon
[23] = test system: 786-0 renal
[24] = test system: HL-60(TB) leukemia
[25] = test system: UACC-62 melanoma
[26] = test system: OVCAR-4 ovarian
[27] = test system: SW-620 colon
[28] = test system: T-47D breast
[29] = test system: SK-MEL-28 melanoma

Structure (SMILES): Cn1cc(-c2cc3nc(-c4cn(C)c5ncccc45)cc(N)n3n2)c2cc(F)ccc21
- TGI [1]: 69.6 µM
- GI50 [2]: 46.2 µM
- TGI [2]: > 100 µM
- GI50 [3]: 57 µM
- TGI [3]: > 100 µM
- GI50 [4]: 10.6 µM
- TGI [4]: 37.7 µM
- GI50 [5]: 8.97 µM
- TGI [5]: > 100 µM
- GI50 [6]: 13.7 µM
- TGI [6]: 58.2 µM
- GI50 [7]: 13.6 µM
- TGI [7]: > 100 µM
- GI50 [8]: 14.4 µM
- TGI [8]: 34.5 µM
- GI50 [9]: 11.2 µM
- TGI [9]: 46.7 µM
- GI50 [10]: 2.43 µM
- TGI [10]: 5.78 µM
- GI50 [11]: 61.2 µM
- TGI [11]: > 100 µM
- GI50 [12]: 4.21 µM
- TGI [12]: 20.6 µM
- GI50 [13]: 5.79 µM
- TGI [13]: 24.3 µM
- GI50 [14]: 19 µM
- TGI [14]: > 100 µM
- GI50 [15]: 4.12 µM
- TGI [15]: 15.4 µM
- GI50 [16]: 20 µM
- TGI [16]: > 100 µM
- GI50 [17]: 13.4 µM
- TGI [17]: > 100 µM
- GI50 [18]: 10.3 µM
- TGI [18]: 31.3 µM
- GI50 [19]: 9.61 µM
- TGI [19]: > 100 µM
- GI50 [20]: > 100 µM
- TGI [20]: > 100 µM
- GI50 [21]: > 100 µM
- TGI [21]: > 100 µM
- GI50 [22]: > 100 µM
- TGI [22]: > 100 µM
- GI50 [23]: 4.82 µM
- TGI [23]: 19.8 µM
- GI50 [24]: > 100 µM
- TGI [24]: > 100 µM
- GI50 [25]: 20.4 µM
- TGI [25]: > 100 µM
- GI50 [26]: 4.12 µM
- TGI [26]: 20.9 µM
- GI50 [27]: 52.7 µM
- TGI [27]: > 100 µM
- GI50 [28]: 6.15 µM
- TGI [28]: 67.1 µM
- GI50 [29]: > 100 µM
- TGI [29]: > 100 µM
